From patent US9006191B2, “Silencing of polo-like kinase expression using interfering RNA” (Protiva Biotherapeutics, Inc., priority 2007, dated 2015)
Where two headings read alike, the source gives them in different places. m = 2'-O-methyl; r = 2'-OH (RNA)

How the values were obtained:
Neuro2a tumors = assay: Hepatic Neuro2a tumor histology (H&E, quantitative); format: in vivo, mouse
Protocol: Hepatic Neuro2a tumor histology 24 h after a single intravenous administration of (A) Luc-U/U or (B) KSP2263-U/U siRNA formulated in SNALP (2 mg/kg siRNA). Images are at 200× magnification and representative of tumors from at least 6 individual mice. […] (C) Quantitative histology of H&E stained tumor tissues from mice treated with SNALP-formulated KSP2263-U/U at 4, 2, 1, or 0.5 mg/kg siRNA. Tumor cells with condensed chromatin structures were scored positive and calculated as a % of total tumor cells taken from 10 fields of view. Positive cells included aberrant and typical mitotic and apoptotic figures. Values are mean+SD of 3 mice. Mean SNALP particle size and (polydispersity) were 88 (0.07) and 82 (0.08) nm for KSP2263 and Luc, respectively.
Histology. Tumors were harvested from mice 24 h after siRNA administration and fixed directly in 10% buffered formalin. Tissues were then processed as paraffin embedded tissue sections and stained with Hematoxylin and Eosin using conventional histological techniques. Quantitative analysis of stained sections was performed by counting the number of mitotic/apoptotic cells displaying condensed chromatin structures as a percentage of total tumor cells. Values for each tumor were derived from means of 10 fields of view at 400× magnification.

HeLa cells = assay: Monoastral spindle formation in HeLa cells; format: cell-based, human; settings: 20 nM, 16 h
Protocol: HeLa cells were treated for 16 h with (A) Luc or (B) KSP2263 siRNA at 20 nM then immunostained for α-tubulin (FITC). DNA was stained with DAPI and flourescent images captured and overlayed.

Neuro2a liver tumors = assay: Intrahepatic Neuro2a tumor model (survival); format: in vivo, mouse; settings: A/J mice, hepatic Neuro2a tumors, 4 mg/kg Q3d x5
Protocol: PLK1424-2/A treatment confers significant survival advantages in scid/beige mice bearing hepatic Hep3B tumors. Mice were administered SNALP-formulated PLK1424-2/A (n=15) or Luc-U/U (n=8) at 6×2 mg/kg, intravenous twice weekly (d 10 to d 28). (A) Body weights (mean+SD) over the dosing period expressed as % of initial weight on d 10. (B) Kaplan-Meier plot of days to euthanization due to tumor burden. […] (p=0.03, Log-rank Mantel Cox test). (C) Residual hepatic Hep3B tumor burden in mice 24 h after final administration of PLK1424-2/A siRNA (5×2 mg/kg siRNA on d 8, 11, 14, 18 & 21). Bars represent hGAPDH mRNA/mg liver of individual mice (mean+/−SD of triplicate analyses) determined by human-specific bDNA assay (No tumor=livers from non-tumor seeded mice). […]
Intrahepatic tumor models. […] Mice were allowed to recover from anaesthesia in a sterile cage and monitored closely for 2-4 h before being returned to conventional housing.
Eight to 11 days after tumor implantation, mice were randomized into treatment groups. siRNA SNALP formulations or PBS vehicle control were administered by standard intravenous injection via the lateral tail vein, calculated on a mg siRNA/kg basis according to individual animal weights (10 mL/kg injection volume). Body weights were then monitored throughout the duration of the study as an indicator of developing tumor burden and treatment tolerability. […]

mouse KSP mRNA [1] = assay: 5′ RACE-PCR of hepatic Neuro2a tumors; format: in vivo
Excerpt: (§1) 5′ RNA Ligase Mediated Rapid Amplification of cDNA ends (5′ RLM RACE).

mouse KSP mRNA [2] = assay: 5′ RACE-PCR in Neuro2a cells; format: cell-based; settings: 24 h
Protocol: (A) HT29 cells were treated with 10 nM SNALP-formulated PLK1424, Luc siRNA or PBS. RNA was isolated 24 hours after transfection and assayed for the specific PLK-1 mRNA cleavage product by 5′-RACE-PCR. (B) Neuro2a cells were treated with SNALP-formulated KSP2263, PLK773 siRNA or PBS. RNA was isolated 24 hours after transfection and assayed for the specific mouse KSP mRNA cleavage product by 5′-RACE-PCR.
The detection of specific RNA cleavage products generated by RISC-mediated hydrolysis of target mRNA is the definitive marker confirming RNAi as the mechanism of gene silencing (39, 40). Activated RISC cleaves target mRNA precisely between the nucleotides complementary to positions 10 and 11 of the siRNA AS strand generating an mRNA cleavage product that is unique to the siRNA sequence. This can be detected in cells using an appropriately designed 5′-rapid amplification of cDNA ends-PCR method (RACE-PCR). We developed RACE-PCR assays to detect the PLK1424-specific cleavage product of human PLK-1 mRNA and the KSP2263-specific cleavage product of mouse KSP mRNA.
as §1

IFIT1 mRNA, serum IFNα [3] = settings: mouse, in vivo, iv
Protocol: (§2) Balb/c mice (n=4 per group) were administered 2.5 mg/kg siRNA or lipid vehicle; serum IFNα (pg/mL) and IFIT1 mRNA (relative to GAPDH) from whole liver lysates were assessed after 4, 8, and 16 h by ELISA and bDNA assay, respectively. […] (b) Serum IFNα and (c) liver IFIT1 mRNA were assessed 4 h after administration (mean+SD, n=4).
(§3) SNALP-formulated Luc (unmodified) and the 2′OMe-modified Luc-U/U, PLK1424-2/A, PLK773-1/B, or KSP2263-U/U siRNA were administered at 2 mg/kg i.v. to Balb/C mice. (A) IFIT1 relative to GAPDH mRNA in liver and spleen was assessed at 4 h by bDNA analysis. […] Serum IFNα was assessed at 6 h by ELISA. […] Values represent mean+SD (n=4).
(§4) IFIT1 mRNA and serum cytokines were assessed 4-6 h after SNALP administration based on the approximate time of peak response for these markers. In these studies, SNALP-formulated native Luc siRNA (Table 6) was used as a positive control for immune stimulation.
(§5) In vivo immune stimulation assays. […] 6-8 week old Balb/C mice were obtained from Harlan and subject to a two week acclimation period prior to use. Mice were administered SNALP formulated siRNA (2 mg/kg) in PBS via standard intravenous injection in the lateral tail vein. Blood was collected by cardiac puncture and processed as plasma for cytokine analysis. Liver and spleen were collected into RNALater (Sigma Co.) for IFIT1 mRNA analysis.
(§6) Measurement of IFIT1 mRNA in mouse tissues. Murine liver and spleen were processed for bDNA assay to quantitate IFIT1 mRNA as described above. The IFIT1 probe set was specific to mouse IFIT1 mRNA (positions 4-499 of NM—008331) and the GAPDH probe set was specific to mouse GAPDH mRNA (positions 9-319 of NM—008084). Data is shown as the ratio of IFIT1 relative light units (RLU) to GAPDH RLU.
(§7) Cytokine ELISA. All cytokines were quantified using sandwich ELISA kits. These were mouse interferon-α (PBL Biomedical; Piscataway, N.J.) and human and mouse IL-6 (BD Biosciences; San Diego, Calif.).

IFIT1 mRNA, serum IFNα [4] = assay: In vivo immune stimulation assay in Balb/c mice (IFIT1 mRNA, serum IFNα); settings: SNALP-formulated siRNA IV; for IFIT1 mRNA induction in liver and spleen: 4 h
Protocol: as §2, §3, §4, §5, §6, §7

PLK-1 mRNA = assay: 5′ RACE-PCR of Hep3B liver tumors; format: in vivo, human; settings: hepatic Hep3B tumors, single 2 mg/kg IV dose
Excerpt: as §1

Hep3B liver tumors = assay: Intrahepatic Hep3B tumor model (survival, body weight, tumor burden); format: in vivo; settings: scid/beige mice, 2 mg/kg IV twice weekly for 3 weeks
Protocol: SNALP containing PLK-1 siRNA (“1:57” SNALP formulation: 1.4% PEG-cDMA; 57.1% DLinDMA; 7.1% DPPC; and 34.3% cholesterol) were tested for their effects on the survival of […] mice bearing Hep3B liver tumors.
Intrahepatic tumor models. Liver tumors were established in mice by direct intrahepatic injection of Hep3B or Neuro2a tumor cells (45). Female scid/beige mice (Charles River Laboratories) and male A/J mice (Jackson Laboratories) were used as hosts for the Hep3B and Neuro2a tumors, respectively. Animals received Anafen by SC injection immediately prior to surgery. Individual mice were anaesthetized by isoflourane gas inhalation and eye lube applied to prevent excessive eye drying. While maintained under gas anaesthesia, a single 1.5 cm incision across the midline was made below the sternum and the left lateral hepatic lobe exteriorized. 1×10^6 Hep3B cells or 1×10^5 Neuro2a cells suspended in 25 μL PBS were injected slowly into the lobe at a shallow angle using a Hamilton syringe and 30G needle. A swab was then applied to the puncture wound to stop any bleeding prior to suturing. Mice were allowed to recover from anaesthesia in a sterile cage and monitored closely for 2-4 h before being returned to conventional housing.
Eight to 11 days after tumor implantation, mice were randomized into treatment groups. siRNA SNALP formulations or PBS vehicle control were administered by standard intravenous injection via the lateral tail vein, calculated on a mg siRNA/kg basis according to individual animal weights (10 mL/kg injection volume). Body weights were then monitored throughout the duration of the study as an indicator of developing tumor burden and treatment tolerability. For efficacy studies, defined humane endpoints were determined as a surrogate for survival. Assessments were made by qualified veterinary technicians based on a combination of clinical signs, weight loss, and abdominal distension to define the day of euthanization due to tumor burden.
Measurement of human PLK-1 and GAPDH mRNA in tumor tissues. Tumors were harvested directly into RNALater and stored at 4° C. until processing. 100 mg tumor tissue was homogenized in Tissue and Lysis Solution (EpiCentre Biotechnologies) containing […] proteinase K (EpiCentre) in a Fastprep tissue homogenizer followed by incubation in a 65° C. waterbath for 15 min and centrifuged to clarify lysates. mRNA analysis in FIG. 33B was performed on purified RNA isolated according the 5′-RACE-PCR protocol. Human PLK-1 and GAPDH mRNA were measured in tumor lystes by the QuantiGene bDNA assay (Panomics) as per the manufacturer's instructions (Quantigene 1.0 Manual). […] Data were expressed as mean PLK-1:GAPDH ratio+/−SD of individual animals. Tumor burden was assessed by homogenizing the complete liver from tumor bearing mice and measuring the total hGAPDH signal (RLU's) within the liver. Values were expressed as hGAPDH RLU/mg total liver.

[5] = Multi-dose toxicity study in CD1 ICR mice; format: in vivo, mouse; settings: 2 mg/kg twice weekly, after 15 and 29 days
Protocol: Groups of CD1 ICR mice were administered PBS, PLK773-1/B, or Luc-U/U SNALP to assess potential cumulative toxicities associated with either PLK-1 silencing or the lipid vehicle. Mice were treated twice weekly at 2 mg/kg siRNA, equivalent to the efficacious dosing regimen in tumor studies. […] All values are mean+/−SD (n=6). No changes in red blood cell parameters were observed.

[6] = tested on: Flt3-ligand derived murine dendritic cells; assay: Cytokine induction in murine Flt3L dendritic cell cultures (ELISA); format: cell-based, mouse; settings: murine Flt3L DC, 5 μg/ml siRNA in SNALP, 24 h
Protocol: Cytokine Induction Assays: Flt3-ligand derived murine dendritic cells (Flt3L DC) were generated as described by Gilliet et al. (J. Exp. Med., 195:953-958) using 100 ng/ml murine Flt3-ligand (PeproTech Inc.; Rocky Hill, N.J.) supplemented media. Femurs and tibiae of female Balb/C mice were isolated and rinsed in sterile PBS. The ends of bones were cut and marrow harvested in complete media (RPMI 1640, 10% heat inactivated FBS, 1% penicillin/streptomycin, 2 mM L-glutamine, 1 mM sodium pyruvate, 25 mM HEPES, 50 μM 2-mercaptoethanol). Bone marrow cells were passed through a 70 μm strainer, centrifuged at 1000 rpm for 7 minutes, and resuspended in complete media supplemented with 100 ng/ml murine Flt3L to 2×10^6 cells/ml. 2 mls of cells were seeded in 6-well plates and 1 ml fresh complete media added every two or three days. On day 9 of culture, non-adherent cells were washed in complete media and plated into 96-well plates at concentrations ranging from 0.5 to 2.5×10^5 cells/well. 2′OMe-modified and unmodified (0/0) PLK-1 SNALP were diluted in PBS and added to Flt3L DC cultures at 5 μg/ml siRNA. Cells were incubated for 24 hours at 37° C. before supernatants were assayed for cytokines by ELISA.
Cytokine ELISA: Interferon-α and IL-6 in culture supernatants were quantified using sandwich ELISA kits according to manufacturer's instructions. These were mouse IFN-α (PBL Biomedical; Piscataway, N.J.) and mouse IL-6 (eBioscience; San Diego, Calif.).
In vitro immune stimulation assays. Mouse Flt3L dendritic cell cultures were generated as described previously (65). In brief, bone marrow from Balb/C mice was harvested in complete media (RPMI 1640, 10% FBS, 1% penicillin/streptomycin, 2 mM L-glutamine, 1 mM sodium pyruvate, 25 mM HEPES, 50 uM 2-mercaptoethanol), passed through a 70 micron strainer and resuspended to 2×10^6 cells/mL in complete media supplemented with 100 ng/mL murine Flt3L (Peprotech). Cells were seeded in 6-well plates and 1 mL fresh Flt3L media added every three days. On day 9 of culture, non-adherent cells were plated into 96 well plates at a concentration 2×10^5 cells/well. Formulated siRNA were diluted in PBS and added to the cells for 24 h before supernatants were assayed for cytokines by ELISA.
Cytokine ELISA. All cytokines were quantified using sandwich ELISA kits.

Substance | Neuro2a tumor histology (aberrant mitotic figures) (Neuro2a tumors; 24 h after SNALP administration) | tumor cells with condensed chromatin structures, % of total tumor cells (Neuro2a tumors; 24 h post siRNA treatment) [%] | monoastral spindle phenotype (HeLa cells) | median survival time (Neuro2a liver tumors) [days] | RNAi-mediated KSP mRNA cleavage by RACE-PCR (mouse KSP mRNA [1]) | KSP mRNA cleavage product by 5′ RACE-PCR (mouse KSP mRNA [2]) | serum IFNα / serum cytokine response (IFIT1 mRNA, serum IFNα [3]) | IFIT1 mRNA induction in liver and spleen (IFIT1 mRNA, serum IFNα [4]) | specific cleavage product of PLK-1 mRNA by 5′ RACE-PCR (PLK-1 mRNA) | median survival time (Hep3B liver tumors) [days] | time until first euthanization (Hep3B liver tumors; days after tumor seeding) [days] | clinical chemistry and blood counts [5] | cytokine (IL-6, IFN-α) response [6] | serum IFNα / serum cytokine response (IFIT1 mRNA, serum IFNα [4]; 4-6 h)
KSP2263-U/U: 2′OMe-modified KSP2263 duplex, SEQ ID NO:227/229 (chain 1 CNGAAGACCNGAAGACAANTT; chain 2 AUUGUCUNCAGGNCUNCAGTT; siRNA; 2'-O-methyl modifications at selected positions, key for n not given here) | significant numbers of tumor cells with aberrant mitotic figures typical of monoastral and apoptotic cells | ~13 | induced the distinct monoastral nuclear phenotype in vitro | 28 | confirmed the specific induction of RNAi-mediated KSP mRNA cleavage within tumors | predicted 102 bp RACE-PCR product was amplified | no measurable IFNα | no measurable IFNα or increase in IFIT1 mRNA in the liver or spleen | – | – | – | – | – | –
Luc-U/U: control 2′OMe siRNA targeting luciferase, SEQ ID NO:233/234 (chain 1 GANUANGNCCGGNNANGNAUU; chain 2 UACANAACCGGACANAANCUU; 2'-O-methyl modifications at selected positions, key for n not given here) [reference compound] | – | – | – | – | – | – | no measurable IFNα | no measurable IFNα or increase in IFIT1 mRNA in the liver or spleen | not evident | 32 | 28 | – | – | –
PLK773-1/B: 2′OMe-modified PLK773 duplex, SEQ ID NO:220/223 (chain 1 AGACCUACCUCCGGAUCAAUU; chain 2 UUGAUCCGNAGNUAGGNCUUU; siRNA; chain 1: sugars from the 5' end r1 m1 r10 m1 r8, backbone not given here; chain 2: chemistry not given here) | – | – | – | – | – | – | – | no measurable IFNα or increase in IFIT1 mRNA in the liver or spleen | – | – | – | no significant changes in serum liver enzymes, total wbc, lymphocyte and neutrophil counts, platelet numbers, or rbc parameters | completely abrogated | no measurable IFNα
